According to patent publication US6589970B2, “6-(aryl-amido or aryl-amidomethyl)-naphthalen-2-yloxy-acidic derivatives as inhibitors of plasminogen activator inhibitor type-1 (PAI-1)” (Wyeth, priority 2001, dated 2003):
Structures can show the parent of a compound that is named as a salt.

Molecular target: T1, recombinant human plasminogen activator inhibitor-1 (PAI-1) (Homo sapiens, UniProt P05121)
T1 construct: purchased Molecular Innovations, Royal Oak, Mich
Assay: Primary Screen for the PAI-1 Inhibition
Format: biochemical
Details: for % Inhib. 100 μM / inhibition at 100 µM: 100 μM test compound; for % Inhib. 25 μM / inhibition at 25 µM: 25 μM test compound; for inhibition at 25 µM: read-out: % Inhib. 25 μM; for inhibition at 100 µM: read-out: % Inhib. 100 μM
Protocol: Test compounds are dissolved in DMSO at a final concentration of 10 mM, then diluted 100× in physiologic buffer. The inhibitory assay is initiated by the addition of the test compound (1-100 μM final concentration, maximum DMSO concentration of 0.2%) in a pH 6.6 buffer containing 140 nM recombinant human plasminogen activator inhibitor-1 (PAI-1; Molecular Innovations, Royal Oak, Mich.). Following a 1 hour incubation at room temperature, 70 nM of recombinant human tissue plasminogen activator (tPA) is added, and the combination of the test compound, PAI-1 and tPA is incubated for an additional 30 minutes. Following the second incubation, Spectrozyme-tPA (American Diagnostica, Greenwich, Conn.), a chromogenic substrate for tPA, is added and absorbance read at 405 nm at 0 and 60 minutes. Relative PAI-1 inhibition is equal to the residual tPA activity in the presence of the test compound and PAI-1. Control treatments include the complete inhibition of tPA by PAI-1 at the molar ratio employed (2:1), and the absence of any effect of the test compound on tPA alone.

T1 sequence (P05121 24-402): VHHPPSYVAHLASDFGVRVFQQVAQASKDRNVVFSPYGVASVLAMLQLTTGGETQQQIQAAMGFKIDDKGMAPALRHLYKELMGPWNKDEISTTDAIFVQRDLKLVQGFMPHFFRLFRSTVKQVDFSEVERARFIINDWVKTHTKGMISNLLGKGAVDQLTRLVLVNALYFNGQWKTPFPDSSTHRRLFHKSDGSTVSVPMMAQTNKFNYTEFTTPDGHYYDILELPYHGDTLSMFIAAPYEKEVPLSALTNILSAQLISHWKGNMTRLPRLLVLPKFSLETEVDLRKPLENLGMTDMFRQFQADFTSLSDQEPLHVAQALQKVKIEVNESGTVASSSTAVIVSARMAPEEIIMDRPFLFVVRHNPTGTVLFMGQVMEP

Structure (SMILES) | % Inhib. 100 μM [%] | % Inhib. 25 μM [%] | inhibition at 25 µM [%] | inhibition at 100 µM [%]
O=C(O)COc1ccc2cc(CNC(=O)c3cc4ccccc4o3)ccc2c1 [Example 1] | 23 | – | – | –
O=C(NCc1ccc2cc(OCc3nn[nH]n3)ccc2c1)c1cc2ccccc2o1 [Example 2] | 52 | 21 | – | –
CCCCc1oc2ccccc2c1C(=O)Nc1ccc2cc(OCC(=O)O)ccc2c1 [Example 4, {6-[(2-Butyl-benzofuran-3-carbonyl)-amino]-naphthalen-2-yloxy}-acetic acid sodium salt] | – | – | 3 | 66
O=C(O)COc1ccc2cc(CNC(=O)c3cc(-c4ccc(Cl)cc4)oc3C(F)(F)F)ccc2c1 [Example 11, [6-({[5-(4-Chloro-phenyl)-2-trifluoromethyl-furan-3-carbonyl]-amino}-methyl)-naphthalen-2-yloxy]-acetic acid] | – | – | – | 32
CCCc1c(C(=O)NCc2ccc3cc(OCC(=O)O)ccc3c2)cnn1-c1ccccc1 [Example 12, (6-{[(1-phenyl-5-propyl-1H-pyrazole-4-carbonyl)-amino]-methyl}-naphthalen-2-yloxy)-acetic acid] | – | – | 5 | 66
CCCc1c(C(=O)NCc2ccc3cc(OCC(=O)O)ccc3c2)cnn1-c1ccc(Cl)cc1 [Example 13, [6-({[1-(4-Chloro-phenyl)-5-propyl-1H-pyrazole-4-carbonyl]-amino}-methyl)-naphthalen-2-yloxy]-acetic acid] | – | – | 5 | 52
CCCc1c(C(=O)NCc2ccc3c(Br)c(OCC(=O)O)ccc3c2)cnn1-c1ccccc1 [Example 15, (1-Bromo-6-{[(1-phenyl-5-propyl-1H-pyrazole-4-carbonyl)-amino]-methyl}-naphthalen-2-yloxy)-acetic acid] | – | – | 5 | 92
O=C(O)COc1ccc2cc(CNC(=O)c3cnn(-c4ccc(Cl)cc4)c3C(F)(F)F)ccc2c1Br [Example 16, [1-Bromo-6-({[1-(4-chloro-phenyl)-5-trifluoromethyl-1H-pyrazole-4-carbonyl]-amino}-methyl)-naphthalen-2-yloxy]-acetic acid] | – | – | 12 | 85
CCCCc1oc2ccccc2c1C(=O)NCc1ccc2c(Br)c(OCC(=O)O)ccc2c1 [Example 19, Sodium; (1-bromo-6-{[(2-butyl-benzofuran-3-carbonyl)-amino]-methyl}-naphthalen-2-yloxy)-acetate] | – | – | – | 32
CCCCc1oc2ccccc2c1C(=O)N(CC)Cc1ccc2cc(OCc3nnn[nH]3)ccc2c1 [Example 35, 2-Butyl-benzofuran-3-carboxylic acid methyl-[6-(1H-tetrazol-5-ylmethoxy)-naphthalen-2ylmethyl]-methyl-amide] | – | – | 26 | 72
CN(Cc1ccc2c(Br)c(OCc3nnn[nH]3)ccc2c1)C(=O)c1ccc(Oc2cc(Cl)cc(Cl)c2)o1 [Example 38, 5-(3,5-Dichloro-phenoxy)-furan-2-carboxylic acid [5-bromo-6-(1H-tetrazol-5-ylmethoxy)-naphthalen-2-ylmethyl]-methyl-amide] | – | – | 47 | 81
CCCCc1c(C(=O)N(C)Cc2ccc3c(Br)c(OCC(Cc4ccccc4)C(=O)O)ccc3c2)oc2ccccc12 (stereo not shown) [Example 40, 2-Benzyl-3-(1-bromo-6-{[(3-butyl-benzofuran-2-carbonyl)-methyl-amino]-methyl}-naphthalen-2-yloxy)-propionic acid] | – | – | 60 | 96
Cc1c(C(=O)N(C)Cc2ccc3c(Br)c(OCC(Cc4ccccc4)C(=O)O)ccc3c2)oc2ccccc12 (stereo not shown) [Example 42, Sodium; 2-benzyl-3-(1-bromo-6-{[methyl-(3-methyl-benzofuran-2-carbonyl)-amino]-methyl}-naphthalen-2-yloxy)-propionate] | – | – | 63 | 79
CCc1oc2ccccc2c1C(=O)NCc1ccc2c(Br)c(OC(Cc3ccccc3)C(=O)O)ccc2c1 (stereo not shown) [Example 58, 2-(1-Bromo-6-{[(2-ethyl-benzofuran-3-carbonyl)-amino]-methyl}-naphthalen-2-yloxy)-3-phenyl-propionic acid] | – | – | – | 29
O=C(O)C(Cc1ccccc1)Oc1ccc2cc(CNC(=O)C3(c4ccc(Cl)cc4)CCCC3)ccc2c1Br (stereo not shown) [Example 59] | 44 | – | – | –
O=C(NCc1ccc2c(Br)c(OC(Cc3ccccc3)C(=O)O)ccc2c1)c1ccc(-c2cccc(C(F)(F)F)c2)o1 (stereo not shown) [Example 60] | 30 | – | – | –

Structure (SMILES) | % Inhib. 100 μM [%] | % Inhib. 25 μM [%] | inhibition at 25 µM [%] | inhibition at 100 µM [%]
CN(Cc1ccc2c(Br)c(OC(Cc3ccccc3)C(=O)O)ccc2c1)C(=O)c1ccc(C2CCCCC2)cc1 (stereo not shown) [Example 61, 2-(1-Bromo-6-{[(4cyclohexyl-benzoyl)-methyl-amino]-methyl}-naphthalen-2-yloxy)-3-phenyl-propionic acid] | – | – | 24 | 75
CCCCc1oc2ccccc2c1C(=O)N(C)Cc1ccc2c(Br)c(OC(Cc3ccccc3)C(=O)O)ccc2c1 (stereo not shown) [Example 62, 2-(1-Bromo-6-{[(2-butyl-benzofuran-3-carbonyl)-methyl-amino]-methyl}naphthalen-2-yloxy)-3-phenyl-propionic acid] | – | – | 1 | 84
CCCc1ccc(-c2ccc(C(=O)N(C)Cc3ccc4c(Br)c(OC(Cc5ccccc5)C(=O)O)ccc4c3)cc2)cc1 (stereo not shown) [Example 63, 2-(1-Bromo-6-{[methyl-(4′-propyl-biphenyl-4-carbonyl)-amino]-methyl}-naphthalen-2-yloxy)-3-phenyl-propionic acid] | – | – | 14 | 69
CCCc1c(C(=O)N(C)Cc2ccc3c(Br)c(OC(Cc4ccccc4)C(=O)O)ccc3c2)cnn1-c1ccccc1 (stereo not shown) [Example 66, 2-(1-Bromo-6-{[methyl-(1-phenyl-5-propyl-1H-pyrazole-4-carbonyl)-amino]-methyl}-naphthalen-2-yloxy)-3-phenyl-propionic acid] | – | – | 46 | 95
CCCc1ccc(-c2ccc(C(=O)N(Cc3ccccc3)Cc3ccc4c(Br)c(OC(Cc5ccccc5)C(=O)O)ccc4c3)cc2)cc1 (stereo not shown) [Example 70, 2-(6-{[Benzyl-(4′-propyl-biphenyl-4-carbonyl)-amino]-methyl}-1-bromo-naphthalen-2-yloxy)-3-phenyl propionic acid] | – | – | 17 | 81
O=C(O)C(Cc1ccccc1)Oc1ccc2cc(CN(Cc3ccccc3)C(=O)c3ccc(C4CCCCC4)cc3)ccc2c1Br (stereo not shown) [Example 71] | 78 | 47 | – | –
CCCc1c(C(=O)N(Cc2ccccc2)Cc2ccc3c(Br)c(OC(Cc4ccccc4)C(=O)O)ccc3c2)cnn1-c1ccccc1 (stereo not shown) [Example 72, 2-(6-{[Benzyl-(1-phenyl-5-propyl-1H-pyrozole-4-carbonyl)-amino]-methyl}-1-bromo-naphthalen-2-yloxy)-3-phenyl-propionic acid] | 68 | 56 | – | –
O=C(O)COc1ccc2cc(NC(=O)c3cc(-c4ccccc4Cl)oc3C(F)(F)F)ccc2c1 [Example 73, (6-{[5-(2-Chloro-phenyl)-2-trifluoromethyl-furan-3-carbonyl]-amino}naphthalen-2-yloxy)-acetic acid] | – | – | 23 | 65
O=C(O)COc1ccc2cc(NC(=O)c3ccc(-c4cccc(C(F)(F)F)c4)o3)ccc2c1 [Example 74, (6-{[5-(3-Trifluoromethyl-phenyl)-furan-2-carbonyl]-amino}-naphthalen-2-yloxy)-acetic acid] | – | – | 20 | 59
O=C(O)COc1ccc2cc(NC(=O)C3(c4ccc(Cl)cc4)CCCC3)ccc2c1 [Example 75, (6-{[1-(4-Chloro-phenyl)-cyclopentanecarbonyl]-amino}-naphthalen-2-yloxy)-acetic acid] | – | – | 1 | 55
O=C(O)COc1ccc2cc(NC(=O)c3ccccc3OCc3ccccc3)ccc2c1 [Example 76] | 54 | 0 | – | –
CC(C)(C)c1cc(C(=O)Nc2ccc3cc(OCC(=O)O)ccc3c2)cc(C(C)(C)C)c1 [Example 77, [6-(3,5-Di-tert-butyl-benzoylamino)-naphthalen-2yloxy]-acetic acid] | – | – | 27 | 51
O=C(O)COc1ccc2cc(NC(=O)c3cc(-c4ccc(-c5ccccc5)cc4)oc3C(F)(F)F)ccc2c1 [Example 78, {6-[(5-Biphenyl-4-yl-2-trifluoromethyl-furan-3-carbonyl)-amino]-naphthalen-2-yloxy}-acetic acid] | – | – | 24 | 51
O=C(O)COc1ccc2cc(NC(=O)C3(c4ccc(Cl)cc4)CCCCC3)ccc2c1 [Example 79, (6-{[1-(4-Chloro-phenyl)-cyclohexanecarbonyl]-amino}-naphathalen-2-yloxy)-acetic acid] | 50 | 19 | – | –
O=C(O)COc1ccc2cc(NC(=O)C3(c4ccc(Cl)cc4)CCC3)ccc2c1 [Example 80, (6-{[1-(4-Chloro-phenyl)-cyclobutanecarbonyl]-amino}-naphthalen-2-yloxy)-acetic acid] | – | – | – | 48
